Values of other authors, collected in patent publication US4041155A, “Long acting somatostatin composition” (American Home Products Corporation, priority 1974, dated 1977).

Key:
GH secretion = settings: patients with acromegaly; cited from earlier work
[1] = tested on: release of glucagon, insulin, and GH; settings: oral glucose tolerance and intravenous arginine tests; cited from earlier work
circulating levels of GH = settings: subcutaneous route, cited from earlier work

Substance | circulating levels of glucose (GH secretion) | circulating levels of insulin (GH secretion) | circulating levels of prolactin (GH secretion) | duration of biologic action (GH secretion) | free fatty acids (GH secretion) | inhibitory action on GH secretion (GH secretion) | levels of follicle-stimulating hormone (GH secretion) | levels of luteinizing hormone (GH secretion) | levels of thyrotropin (GH secretion) | release of GH [1] | release of glucagon [1] | release of insulin [1] | circulating levels of GH (circulating levels of GH; "gentled" rats) | elevation of plasma GH concentration induced by sodium pentobarbital (circulating levels of GH; rats) | duration of activity, half-life (circulating levels of GH; rats, estimated)
Somatostatin: cyclic disulfide tetradecapeptide; Somatotropin-release inhibiting factor secreted by the hypothalamus | fall | fall | fall | brief | increase | nearly complete | No effects | No effects | No effects | impairs the release | impairs the release | impairs the release |  |  | 
linear somatostatin: reduced tetradecapeptide; differs from cyclic form by lacking the bridging bond between the two cysteinyl sulfhydryls |  |  |  |  |  |  |  |  |  |  |  |  | lowers the circulating levels of GH | prevents the elevation of plasma GH concentration | less than ten minutes
